Measured values: article PMC10945501, “Development and In Vivo Evaluation of Small-Molecule Ligands for Positron Emission Tomography of Immune Checkpoint Modulation Targeting Programmed Cell Death 1 Ligand 1” (Journal of Medicinal Chemistry, 2024)
Read-outs that look alike come from different tables or passages of the source.

Key:
[1] = Lipophilicity by HPLC method (μHPLC logD); settings: for chromatographic logD: pH 7.4, μHPLC logD; for μHPLC logD: pH 7.4
human PD-L1 = molecular target: T1, human PD-L1 (Homo sapiens, UniProt Q9NZQ7); assay: HTRF PD-1/PD-L1 binding assay (cell-free); settings: for fold decrease in affinity by methylation at R3*: pairs 4c vs 5a, 4c vs 5b, 4e vs 5c, 4e vs 5d; for fold reduction of affinity, pyrrole at R1 vs 1,4-benzodioxanyl analogue: pairs 4c vs 4m, 4e vs 4n, 4f vs 4o, 5c vs 5f
T1 construct: purchased Cisbio Bioassays SAS, Codolet, France 64PD1PEG
T1 sequence (Q9NZQ7 19-238 limits assumed): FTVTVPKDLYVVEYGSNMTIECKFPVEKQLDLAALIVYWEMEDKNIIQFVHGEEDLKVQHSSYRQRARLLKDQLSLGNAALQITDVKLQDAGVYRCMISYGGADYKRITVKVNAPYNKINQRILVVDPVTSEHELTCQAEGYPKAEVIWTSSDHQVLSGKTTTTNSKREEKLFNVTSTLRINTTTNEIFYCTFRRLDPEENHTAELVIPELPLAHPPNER

[2] = cell-free competitive PD-1/PD-L1 HTRF, mean ± SD, read-out: IC50 (hPD-L1 binding affinity, HTRF)
[3] = no full dose–response curves observed, values are relative IC50, read-out: relative IC50 (hPD-L1 binding affinity, HTRF)

SMILES	chromatographic logD [1]	IC50 (human PD-L1; [2]) [nM]	μHPLC logD [1]	further results
Cc1c(COc2cc(OCc3ccnc(C#N)c3)c(CN[C@H](CO)C(=O)O)cc2Cl)cccc1-c1ccc2c(c1)OCCO2 [Compound 4c, (5-Chloro-2-((2-cyanopyridin-4-yl)methoxy)-4-((3-(2,3-dihydrobenzo[b][1,4]dioxin-6-yl)-2-methylbenzyl)oxy)benzyl)-D-serine]	3.25 ± 0.03	6.1 ± 0.3		
Cc1c(COc2cc(O)c(C=O)cc2Cl)cccc1-c1ccccc1 [Compound 2b, 5-Chloro-2-hydroxy-4-((2-methyl-[1,1′-biphenyl]-3-yl)methoxy)benzaldehyde]		> 100000		
Cc1c(COc2cc(OCc3cccc(C#N)c3)c(CN[C@H](CO)C(=O)O)cc2Cl)cccc1-c1ccccc1 [Compound 4b, (5-Chloro-2-((3-cyanobenzyl)oxy)-4-((2-methyl-[1,1′-biphenyl]-3-yl)methoxy)benzyl)-D-serine]	3.46 ± 0.05	6.7 ± 0.4		
CC(=O)NCCNCc1cc(Cl)c(OCc2cccc(-c3ccc4c(c3)OCCO4)c2C)cc1OCc1ccnc(C#N)c1 [Compound 4d, N-(2-((5-Chloro-2-((2-cyanopyridin-4-yl)methoxy)-4-((3-(2,3-dihydrobenzo [b][1,4]dioxin-6-yl)-2-methylbenzyl)oxy)benzyl)amino)ethyl)acetamide]	4.45 ± 0.2	9.2 ± 0.6	4.5 ± 0.2	
Cc1c(COc2cc(OCc3ccnc(C#N)c3)c(C=O)cc2Cl)cccc1-c1ccc2c(c1)OCCO2 [Compound 3b, 4-((4-Chloro-5-((3-(2,3-dihydrobenzo[b][1,4]dioxin-6-yl)-2-methylbenzyl)oxy)-2-formylphenoxy)methyl)picolinonitrile]				IC50 (human PD-L1; [3]): 207 ± 340 nM
Cc1c(COc2cc(OCc3cccc(C#N)c3)c(C=O)cc2Cl)cccc1-c1ccc2c(c1)OCCO2 [Compound 3c, 3-((4-Chloro-5-((3-(2,3-dihydrobenzo[b][1,4]dioxin-6-yl)-2-methylbenzyl)oxy)-2-formylphenoxy)methyl)benzonitrile]		> 5000		
Cc1c(COc2cc(OCc3cocn3)c(C=O)cc2Cl)cccc1-c1ccc2c(c1)OCCO2 [Compound 3d, 5-Chloro-4-((3-(2,3-dihydrobenzo[b][1,4]dioxin-6-yl)-2-methylbenzyl)oxy)-2-(oxazol-4-ylmethoxy)benzaldehyde]		> 5000		
Cc1c(COc2cc(OCc3cccc(C#N)c3)c(C=O)cc2Cl)cccc1-c1ccccc1 [Compound 3a, 3-((4-Chloro-2-formyl-5-((2-methyl-[1,1′-biphenyl]-3-yl)methoxy)phenoxy)methyl)benzonitrile]				IC50 (human PD-L1; [3]): 1300 nM
Cc1c(COc2cc(OCc3ccnc(C#N)c3)c(CNCCF)cc2Cl)cccc1-c1ccc2c(c1)OCCO2 [Compound 5i, 4-((4-Chloro-5-((3-(2,3-dihydrobenzo[b][1,4]dioxin-6-yl)-2-methylbenzyl)oxy)-2-(((2-fluoroethyl)amino)methyl)phenoxy)methyl)picolinonitrile]	5.21 ± 0.31	12 ± 1	5.2 ± 0.3	
Cc1c(COc2cc(O)c(C=O)cc2Cl)cccc1-c1ccc2c(c1)OCCO2 [Compound 2c, 5-Chloro-4-((3-(2,3-dihydrobenzo[b][1,4]dioxin-6-yl)-2-methylbenzyl)oxy)-2-hydroxybenzaldehyde]		> 100000		
Cc1c(COc2cc(OCc3ccnc(C#N)c3)c(C=O)cc2Cl)cccc1-n1cccc1 [Compound 3e, 4-((4-Chloro-2-formyl-5-((2-methyl-3-(1H-pyrrol-1-yl)benzyl)oxy)phenoxy)methyl)picolinonitrile]		> 5000		

More lines, main results first:

chromatographic logD [1]	IC50 (human PD-L1; [2]) [nM]	μHPLC logD [1]	SMILES	further results
4.21 ± 0.16	50 ± 7	4.2 ± 0.2	CC(=O)NCCNCc1cc(Cl)c(OCc2cccc(-c3ccc4c(c3)OCCO4)c2C)cc1OCc1cocn1 [Compound 4k, N-(2-((5-Chloro-4-((3-(2,3-dihydrobenzo[b][1,4]dioxin-6-yl)-2-methylbenzyl)oxy)-2-(oxazol-4-ylmethoxy)benzyl)amino)ethyl)acetamide]	
4.88 ± 0.26	30 ± 8	4.9 ± 0.3	COC(=O)[C@@H](CO)NCc1cc(Cl)c(OCc2cccc(-c3ccc4c(c3)OCCO4)c2C)cc1OCc1ccnc(C#N)c1 [Compound 5b, Methyl (5-Chloro-2-((2-cyanopyridin-4-yl)methoxy)-4-((3-(2,3-dihydrobenzo[b][1,4]dioxin-6-yl)-2-methylbenzyl)oxy)benzyl)-D-serinate]	fold decrease in affinity by methylation at R3* (human PD-L1; IC50 ratio): 4.98 fold
3.39 ± 0.04	16 ± 3		Cc1c(COc2cc(OCc3cocn3)c(CN3CCCC[C@H]3C(=O)O)cc2Cl)cccc1-c1ccc2c(c1)OCCO2 [Compound 4l, (S)-1-(5-Chloro-4-((3-(2,3-dihydrobenzo[b][1,4]dioxin-6-yl)-2-methylbenzyl)oxy)-2-(oxazol-4-ylmethoxy)benzyl)piperidine-2-carboxylic Acid]	
> 5.75	12 ± 2		Cc1c(COc2cc(OCc3ccnc(C#N)c3)c(CN3CCOC3CF)cc2Cl)cccc1-c1ccc2c(c1)OCCO2 (centres unmarked) [Compound 5g, 4-((4-Chloro-5-((3-(2,3-dihydrobenzo[b][1,4]dioxin-6-yl)-2-methylbenzyl)oxy)-2-((2-(fluoromethyl)oxazolidin-3-yl)methyl)phenoxy)methyl)picolinonitrile]	
5.09 ± 0.29	19 ± 4	5.1 ± 0.3	COCCNCc1cc(Cl)c(OCc2cccc(-c3ccc4c(c3)OCCO4)c2C)cc1OCc1ccnc(C#N)c1 [Compound 5d, 4-((4-Chloro-5-((3-(2,3-dihydrobenzo[b][1,4]dioxin-6-yl)-2-methylbenzyl)oxy)-2-(((2-methoxyethyl)amino)methyl)phenoxy)methyl)picolinonitrile]	fold decrease in affinity by methylation at R3* (human PD-L1; IC50 ratio): 2.42 fold
4.71 ± 0.24	7.7 ± 0.6	4.7 ± 0.2	Cc1c(COc2cc(OCc3ccnc(C#N)c3)c(CNCCO)cc2Cl)cccc1-c1ccc2c(c1)OCCO2 [Compound 4e, 4-((4-Chloro-5-((3-(2,3-dihydrobenzo[b][1,4]dioxin-6-yl)-2-methylbenzyl)oxy)-2-(((2-hydroxyethyl)amino)methyl)phenoxy)methyl)picolinonitrile]	
5.61 ± 0.37	589 ± 178	5.6 ± 0.4	CC(=O)N1CCN(Cc2cc(Cl)c(OCc3cccc(-c4ccc5c(c4)OCCO5)c3C)cc2OCc2cccc(C#N)c2)C1=O [Compound 5e, 3-((2-((3-Acetyl-2-oxoimidazolidin-1-yl)methyl)-4-chloro-5-((3-(2,3-dihydrobenzo[b][1,4]dioxin-6-yl)-2-methylbenzyl)oxy)phenoxy)methyl)benzonitrile]	
2.83 ± 0.04	6 ± 1		Cc1c(COc2cc(OCc3ccnc(C#N)c3)c(CN[C@H](CO)C(=O)O)cc2Cl)cccc1-n1cccc1 [Compound 4m, (5-Chloro-2-((2-cyanopyridin-4-yl)methoxy)-4-((2-methyl-3-(1H-pyrrol-1-yl)benzyl)oxy)benzyl)-D-serine]	fold reduction of affinity, pyrrole at R1 vs 1,4-benzodioxanyl analogue (human PD-L1; IC50 ratio): 1.03 fold
4.73 ± 0.24	11 ± 1	4.7 ± 0.2	CC(=O)NCCNCc1cc(Cl)c(OCc2cccc(-c3ccc4c(c3)OCCO4)c2C)cc1OCc1cccc(C#N)c1 [Compound 4j, N-(2-((5-Chloro-2-((3-cyanobenzyl)oxy)-4-((3-(2,3-dihydrobenzo[b][1,4]dioxin-6-yl)-2-methylbenzyl)oxy)benzyl)amino)ethyl)acetamide]	
> 5.75	1290		Cc1c(COc2cc(OCc3ccnc(C#N)c3)c(CN3CCCC[C@H]3C(=O)OCCF)cc2Cl)cccc1-c1ccc2c(c1)OCCO2 [Compound 5h, 2-Fluoroethyl (S)-1-(5-Chloro-2-((2-cyanopyridin-4-yl)methoxy)-4-((3-(2,3-dihydrobenzo[b][1,4]dioxin-6-yl)-2-methylbenzyl)oxy)benzyl)piperidine-2-carboxylate]	fold decrease in affinity by fluoroethylation / fluoroethyl carbamylation at R3* (human PD-L1; IC50 ratio, pairs 4f vs 5h, 4j vs 5j): 265 fold
4.54 ± 0.21	16 ± 4	4.5 ± 0.2	Cc1c(COc2cc(OCc3ccnc(C#N)c3)c(CN(C)CCO)cc2Cl)cccc1-n1cccc1 [Compound 5f, 4-((4-Chloro-2-(((2-hydroxyethyl)(methyl)amino)methyl)-5-((2-methyl-3-(1H-pyrrol-1-yl)benzyl)oxy)phenoxy)methyl)picolinonitrile]	fold reduction of affinity, pyrrole at R1 vs 1,4-benzodioxanyl analogue (human PD-L1; IC50 ratio): 1.61 fold
3.42 ± 0.05	46 ± 5		Cc1c(COc2cc(OCc3ccnc(C#N)c3)c(CNCCOCCOCCOCCOCCC(=O)O)cc2Cl)cccc1-c1ccc2c(c1)OCCO2 [Compound 4g, 1-(5-Chloro-2-((2-cyanopyridin-4-yl)methoxy)-4-((3-(2,3-dihydrobenzo [b][1,4]dioxin-6-yl)-2-methylbenzyl)oxy)phenyl)-5,8,11,14-tetraoxa-2-azaheptadecan-17-oic Acid]	
4.34 ± 0.18	50 ± 3	4.3 ± 0.2	Cc1c(COc2cc(OCc3ccnc(C#N)c3)c(CNCCO)cc2Cl)cccc1-n1cccc1 [Compound 4n, 4-((4-Chloro-2-(((2-hydroxyethyl)amino)methyl)-5-((2-methyl-3-(1H-pyrrol-1-yl)benzyl)oxy)phenoxy)methyl)picolinonitrile]	fold reduction of affinity, pyrrole at R1 vs 1,4-benzodioxanyl analogue (human PD-L1; IC50 ratio): 6.40 fold
3.42 ± 0.05	8.2 ± 1.8		C#CCC[C@H](NCc1cc(Cl)c(OCc2cccc(-c3ccc4c(c3)OCCO4)c2C)cc1OCc1ccnc(C#N)c1)C(=O)O [Compound 4h, (S)-2-((5-Chloro-2-((2-cyanopyridin-4-yl)methoxy)-4-((3-(2,3-dihydrobenzo [b][1,4]dioxin-6-yl)-2-methylbenzyl)oxy)benzyl)amino)hex-5-ynoic Acid]	
